The text below walks through data of US12616684B2, “Pulmonary fibrosis medicine containing pyrazole derivative” (priority 2020, dated 2026).

Where a name gives a salt, the structure may show the parent alone. Read-outs that look alike come from different tables or passages of the source.

Data set [1] in a line: Toxicity to Calu-3 human lung epithelial cells. In kind it is cell-based. Particulars: Calu-3 cells, read-out: CC50 (50% cytotoxic concentration). As to the method: In order to analyze the antiviral activity of the compounds of the synthetic examples, real-time qRT-PCR (quantitative RT-PCR) was perfumed using severe acute respiratory syndrome coronavirus 2 (SARS-CoV2) and Calu-3 cells, which are human lung epithelial cells. Human lung epithelial cells (Calu-3) were cultured in Dulbecco's Modified Eagle Medium (DMEM) at 37° C. under 5% CO2. The concentration of Compound 1 was 15, 12.5, 6.25, 3.125, 1.563, 0.781, 0.391, 0.195, 0.098, 0.049, 0.024, 0.012 μM. Antiviral efficacy (IC50; 50% inhibition concentration) and toxicity to the cells (CC50; 50% cytotoxic concentration) according to drug concentration were measured at 24 hours and 48 hours after treatment on the cells by concentration, and are shown in Table 1 and FIG. 10.

Another data set has as its system IL-1β. The data set can be described thus: LPS-induced IL-1β expression in normal human lung fibroblasts, RT-PCR. In kind it is cell-based. To be noted: NHLFs, pre-treated 30 minutes, LPS 6 hours, FIG. 4.
For data set [2], the system named is severe acute respiratory syndrome coronavirus 2 (SARS-CoV2). Briefly: Antiviral activity against SARS-CoV2 in Calu-3 cells, real-time qRT-PCR. It counts as cell-based. Particulars: for IC50: Severe acute respiratory syndrome coronavirus 2, SARS-CoV2 in Calu-3 cells, read-out: IC50 (50% inhibition concentration), antiviral efficacy.
The test system of data set [3] is C57BL/6J mice with bleomycin-induced pulmonary fibrosis. Briefly: Mouse model with bleomycin-induced pulmonary fibrosis. In kind it is in vivo. Particulars: for improved (modified) Ashcroft score: oral once a day for 28 days, Compound 1 60 mg/kg, nintedanib 100 mg/kg, BLM group 5.5±0.8, mean and standard deviation, FIG. 9. As to the method:
For the mouse model with bleomycin-induced pulmonary fibrosis, C57BL/6J male mice aged 5 weeks and before and after body weight of 20 g were used. C57BL/6J mice were anesthetized by intraperitoneally injection of pentobarbital (40 mg/kg), the skin of the anterior neck or midline was incised, the trachea was exposed with a self-retaining retractor, and then a micro syringe was inserted from the occipital side to the lungs to slowly administer bleomycin (2 mg/kg) while checking the state of respiration. Immediately after injection, the skin of the incised anterior neck or midline was sutured, and then they were bred in a sterile animal room at constant temperature (22-26° C.) and constant humidity (55-60%). By this method, remarkable fibrosis occurred in the lungs, usually after 3 weeks of treatment. Experimental animals were 7 animals in each group, and the experiment was conducted by dividing them into the following groups: a control group (Control) orally administered with distilled water, a group (BLM) with bleomycin-induced pulmonary fibrosis, an experimental group as a positive control group (BLM+Nintedanib) orally administered with 100 mg/kg of nintedanib daily 3 weeks after administration of bleomycin, and an experimental group (BLM+Compound 1) orally administered with 60 mg/kg of Compound 1 daily 3 weeks after administration of bleomycin. Nintedanib and Compound 1 were orally administered once a day for 28 days. On the day after the last administration of nintedanib or compound 1, each animal was anesthetized, and then was bled by cardiac puncture and sacrificed. Lung tissues were enucleated from all animals for histopathological examination. The enucleated lung tissue was fixed in 10% neutral buffered formalin (NBF). The fixed lung tissue was embedded in paraffin and sliced to a thickness of 4 μm to prepare a tissue slide. The tissue slides were subjected to hematoxylin & eosin (H&E) staining, which is cell staining, and Masson's trichrome (MT) staining to confirm fibrosis. Histopathological examination of the prepared tissue slides was confirmed using an optical microscope (Carl Zeiss, Oberkochen, Germany). The severity of fibrosis was assessed using the modified Ashcroft scale, which is a semi-quantitative histopathological scoring. For immunohistochemical staining, the tissue slides prepared above were de-paraffinized, and then rabbit anti-α-smooth muscle actin (SMA) antibody or rabbit anti-collagen type I antibody was used as a primary antibody. And, Vectastatin ABC kit (Vector Laboratories, Inc, Burlingame, CA) was used to confirm the expression of the antigen reacted with each antibody. […] When reading the staining result, if the cytoplasm is colored reddish-brown in whole or in part, it is considered that there is an immune reaction, and thus, it is read as positive. From the experimental results, the mean and standard deviation were obtained using the SPSS ver. 22.0 statistical program (SPSS Inc., Chicago, IL, USA), and the significance of the difference between the experimental groups was verified at p<0.05 level by the student t-test.

Data set [4] has as its system normal human lung fibroblasts (NHLFs). The data set can be described thus: PMA stimulation-induced reactive oxygen species generation in normal human lung fibroblasts. It counts as cell-based. Particulars: FIG. 1. The text has this: In order to confirm the effect of the compounds of the synthetic examples on the generation of reactive oxygen species from lung fibroblasts, the generation of reactive oxygen species was induced through PMA stimulation in normal human lung fibroblasts (NHLFs, Lonza), and the inhibitory effect of Compound 1 on the generation of reactive oxygen species was observed under this condition. Each cell was suspended in a culture medium containing 10% FBS, seeded in a 96-well plate, and cultured for 24 hours under conditions of 5% CO2 and 37° C. After pre-treating Compound 1 for 30 minutes to 1 hour, TGF-β1 or phorbol 12-myristate 13-acetate (PMA) stimulation was applied to each well including cells and drugs.

The test system is the same in data set [5]. Briefly: TGF-β1-induced αSMA and collagen type I expression (myofibroblast differentiation), immunocytochemistry. In kind it is cell-based. Particulars: 10 ng/ml TGF-β1 72 hours, 2 mM Compound 1 pre-treated 1 hour. Here is the method: In order to analyze the effect of Compound 1 on the differentiation of lung fibroblasts into myofibroblasts, the inhibitory effect of Compound 1 on the increase in the expression of TGF-β1-induced α-smooth muscle actin (αSMA) and collagen type I (collagen I) in normal human lung fibroblasts (NHLFs, Lonza) was observed. NHLF cells were suspended in culture medium (FGM-2 Bulletkit media, Lonza) and inoculated at a concentration of 1×10^4 cells/well on a 4-well chamber slide (Nunc). After 24 hours of culture in a CO2 incubator, the medium was replaced with a serum-free medium and further cultured for 12 hours. Thereafter, vehicle and 2 mM Compound 1 were pre-treated in the corresponding wells for 1 hour, and then 10 ng/ml of TGF-β1 was treated in each well except for the negative control (vehicle group) for 72 hours. Confirmation of the expression of αSMA and collagen I in the prepared cells was performed through immunocytochemistry as follows. Cells were fixed in 4% paraformaldehyde for 10 minutes and permeated using 0.1% Triton X-100, and primary antibody (anti-αSMA Ab, 1:200; anti-collagen I Ab, 1:500, reacted for 3 hours at room temperature) and secondary antibody (ALEXA™-594 conjugated Ab, 1:1000, reacted for 1 hour at room temperature) treatment process was sequentially performed, and then the expression of αSMA and collagen I was observed using a fluorescence microscope. […]

Setting [6] is: 60 mg/kg oral once a day for 28 days, FIG. 5.

For the molecule `CCCc1c(-c2ccccc2)nn(-c2ccccn2)c1O` [Compound 1, 3-phenyl-4-propyl-1-(pyridin-2-yl)-1H-pyrazol-5-ol hydrochloride], the CC50 at 24 h in data set [1] (24 hours after treatment) was 435 µM. Also, in data set [1] (48 hours after treatment), the CC50 at 48 h stood at 164 µM. For the same molecule, the “LPS-induced IL-1β expression” value with IL-1β is listed as “effectively inhibited in a concentration-dependent manner”. In data set [2] (CC50/IC50, 24 hours), the SI is 13.80. In data set [2] (CC50/IC50, 48 hours), this molecule came in with an SI of 98.50. In addition, in data set [2] (24 hours after treatment), the IC50 was determined as 31.5 µM. Moreover, in data set [2] (48 hours after treatment), the IC50 was 1.67 µM. For the same molecule, in data set [3] (setting [6]), the “deformation of the lung structure (H&E staining)” value is “reduced”, the “hypertrophic epithelial cells (H&E staining)” value was “decreased” and the “site of abnormal tissue deposition (H&E staining)” value is recorded as “reduced”. Moreover, the “degree of infiltration of inflammatory cells into the alveolus and bronchiole (H&E staining)” value in data set [3] (60 mg/kg oral once a day for 28 days, compared with BLM and BLM+Nintedanib groups, FIG. 5) was “significantly lower than that of the experimental group and the positive control group”. In data set [3] (60 mg/kg oral once a day for 28 days, compared with BLM and BLM+Nintedanib groups, FIG. 6), the “size of the fibrosis area and deposition of collagen due to fibrosis (Masson's trichrome staining)” value is “remarkably reduced”. For the same molecule, the “expression of α-SMA in lung tissue (immunohistochemical staining)” value in data set [3] (60 mg/kg oral once a day for 28 days, compared with BLM and BLM+Nintedanib groups, FIG. 7) is on record as “reduced”. Besides, in data set [3] (60 mg/kg oral once a day for 28 days, compared with BLM and BLM+Nintedanib groups, FIG. 8), the “expression of collagen type I (collagen I) in lung tissue (immunohistochemical staining)” value was “remarkably reduced”. In addition, in data set [3], the “improved (modified) Ashcroft score” value is 4.0±1.1. In addition, the “generation of PMA stimulation-induced reactive oxygen species” value in data set [4] was “inhibited in a concentration-dependent manner”. The “increase in the expression of αSMA” value in data set [5] (FIG. 2) was “remarkably inhibited”. Further, the “increase in the expression of collagen I” value in data set [5] (FIG. 3) was “remarkably inhibited”.

Consider `COC(=O)c1ccc2c(c1)NC(=O)/C2=C(\Nc1ccc(N(C)C(=O)CN2CCN(C)CC2)cc1)c1ccccc1` [nintedanib, reference compound], for which the “improved (modified) Ashcroft score” value in data set [3] was 5.2±0.45.
